Measurements reported in patent US11214803B2, “Modulators of YAP1 expression” (Ionis Pharmaceuticals, Inc., priority 2019, dated 2022).
Strand notation (5' to 3'): a small letter for the sugar, then the base; units joined by * are phosphorothioate-linked, units joined directly phosphodiester-linked; [ ] holds rarer units or linkages, { } end groups; capitals alone tell only the bases. k = constrained ethyl (cEt); [5mC] = 5-methylcytosine; d = 2'-deoxy (DNA)

What was measured:
Yap1 mRNA [1] = experiment: Dose-dependent inhibition of human Yap1 in A-431 cells (Example 7, 10,000 cells per well, RTS36584); format: cell-based; settings: free uptake
Outline: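 A-431 cells at 10,000 per well received modified oligonucleotides by free uptake at several doses. After about 48 hours, Yap1 mRNA was quantified with primer-probe set RTS36584, normalized to RIBOGREEN total RNA and expressed as % untreated control. IC50 came from linear regression on a log/linear plot.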

[2] = Tolerability in Balb/c mice, plasma chemistry markers (Example 12); format: in vivo; settings: 50 mg/kg subcutaneously twice a week for four weeks
Protocol: Balb/c mice were treated with modified oligonucleotides selected from studies described above and evaluated for changes in the levels of various plasma chemistry markers.
(§1) Groups of male Balb/c mice at 6-7 weeks of age (obtained from Taconic) were injected subcutaneously twice a week for four weeks (for a total of 8 treatments) with 50 mg/kg of modified oligonucleotides. One group of male Balb/c mice was injected with PBS. Mice were euthanized on day 26 post start of treatment (24 hours following the final administration).

Yap1 mRNA [3] = experiment: Dose-dependent inhibition of human Yap1 in SNU-449 cells (Example 9, RTS36584); format: cell-based; settings: free uptake; for % UTC (Yap1 mRNA): approximately 48 hours
Outline: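 SNU-449 cells (10,000/well) took up modified oligonucleotides by free uptake at a range of doses for about 48 h. Yap1 mRNA was quantified with primer-probe set RTS36584, normalised to RIBOGREEN total RNA and expressed as % untreated control; IC50 from linear regression on log/linear plot.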

[4] = Tolerability in Balb/c mice, body and organ weights (Example 12); format: in vivo; settings: male Balb/c mice, 50 mg/kg s.c. twice a week for four weeks (8 treatments), end of study (day 26)
Protocol: as §1
Body weights of Balb/c mice were measured at the end of the study, and the average body weight for each group is presented in the table below. Modified oligonucleotides that caused any changes in organ weights outside the expected range for modified oligonucleotides were excluded from further studies.

[5] = 15.6 nM, A-431 cells, 10,000 cells per well, approximately 48 hours
[6] = 62.5 nM, A-431 cells, 10,000 cells per well, approximately 48 hours
[7] = 4000.00 nM, A-431 cells, 10,000 cells per well, approximately 48 hours
[8] = A-431 cells, approximately 48 hours, linear regression on log/linear plot
[9] = Table 61, 15.6 nM, A-431 cells 10,000 cells per well, 48 hours
[10] = Table 61, 62.5 nM, A-431 cells 10,000 cells per well, 48 hours
[11] = Table 61, 4000.00 nM, A-431 cells 10,000 cells per well, 48 hours
[12] = Table 61, A-431 cells 10,000 cells per well
[13] = Table 59, 15.6 nM, A-431 cells 10,000 cells per well, 48 hours
[14] = Table 59, 62.5 nM, A-431 cells 10,000 cells per well, 48 hours
[15] = Table 59, 4000.00 nM, A-431 cells 10,000 cells per well, 48 hours
[16] = Table 59, A-431 cells 10,000 cells per well
[17] = Table 56, 15.6 nM, A-431 cells 10,000 cells per well, 48 hours
[18] = Table 56, 62.5 nM, A-431 cells 10,000 cells per well, 48 hours
[19] = Table 56, 4000.00 nM, A-431 cells 10,000 cells per well, 48 hours
[20] = Table 56, A-431 cells 10,000 cells per well

Substance | ALT [2] | AST [2] | BUN [2] | TBIL [2] | Kidney weight [4] | Liver weight [4] | Spleen weight [4] | body weight [4] | further results
958590 (kA*kG*kG*dT*dA*dT*dA*dA*d[5mC]*dT*dG*dG*dG*k[5mC]*kA*kA) [compound 958590] | 374 U/L | 360 U/L | 25 mg/dL | 0.16 mg/dL | 0.40 g | 1.76 g | 0.13 g | 25 g | Yap1 mRNA, % UTC (Yap1 mRNA [1]; [5]): 71 % UTC; Yap1 mRNA, % UTC (Yap1 mRNA [1]; [6]): 33 % UTC; Yap1 mRNA, % UTC (Yap1 mRNA [1]; [7]): 4 % UTC; IC50 (Yap1 mRNA [1]; [8]): 30 nM; % UTC (Yap1 mRNA) (Yap1 mRNA [3]; 31.3 nM): 69 % UTC; % UTC (Yap1 mRNA) (Yap1 mRNA [3]; 125.0 nM): 52 % UTC; % UTC (Yap1 mRNA) (Yap1 mRNA [3]; 500.0 nM): 29 % UTC; % UTC (Yap1 mRNA) (Yap1 mRNA [3]; 2000.00 nM): 12 % UTC; IC50 (Yap1 mRNA [3]; linear regression on a log/linear plot): 100 nM
958509 (kA*kT*kG*dT*dT*dA*dT*dG*dT*dT*dT*dG*dG*kG*kT*kG; antisense) [compound 958509] | 1483 U/L | 1627 U/L | 26 mg/dL | 0.31 mg/dL | 0.27 g | 1.50 g | 0.13 g | 20 g | Yap1 mRNA, % UTC (Yap1 mRNA [1]; [9]): 66 % UTC; Yap1 mRNA, % UTC (Yap1 mRNA [1]; [10]): 37 % UTC; Yap1 mRNA, % UTC (Yap1 mRNA [1]; [11]): 7 % UTC; IC50 (Yap1 mRNA [1]; [12]): 30 nM
958498 (kG*kA*kG*dT*dA*dT*dG*dT*dG*dG*d[5mC]*dA*dA*kT*kA*kA; antisense) [compound 958498] | 1441 U/L | 3197 U/L | 12 mg/dL | 0.74 mg/dL | 0.45 g | 1.51 g | 0.19 g | 20 g | Yap1 mRNA, % UTC (Yap1 mRNA [1]; [13]): 70 % UTC; Yap1 mRNA, % UTC (Yap1 mRNA [1]; [14]): 21 % UTC; Yap1 mRNA, % UTC (Yap1 mRNA [1]; [15]): 2 % UTC; IC50 (Yap1 mRNA [1]; [16]): 20 nM
958725 (kG*kT*k[5mC]*dA*dG*dT*dT*dA*dT*d[5mC]*d[5mC]*dT*dA*kT*k[5mC]*k[5mC]; antisense) [compound 958725] | 3758 U/L | 3758 U/L | 31 mg/dL | 0.91 mg/dL | 0.21 g | 1.23 g | 0.04 g | 15 g | Yap1 mRNA, % UTC (Yap1 mRNA [1]; [5]): 65 % UTC; Yap1 mRNA, % UTC (Yap1 mRNA [1]; [6]): 36 % UTC; Yap1 mRNA, % UTC (Yap1 mRNA [1]; [7]): 1 % UTC; IC50 (Yap1 mRNA [1]; [8]): 30 nM
958721 (kG*kT*kA*dG*dT*dA*dT*dA*dA*dT*dG*dA*dG*kT*kT*kA; antisense) [compound 958721] | 57 U/L | 114 U/L | 28 mg/dL | 0.17 mg/dL | 0.33 g | 1.45 g | 0.12 g | 24 g | Yap1 mRNA, % UTC (Yap1 mRNA [1]; [17]): 72 % UTC; Yap1 mRNA, % UTC (Yap1 mRNA [1]; [18]): 32 % UTC; Yap1 mRNA, % UTC (Yap1 mRNA [1]; [19]): 3 % UTC; IC50 (Yap1 mRNA [1]; [20]): 30 nM
958375 (antisense kA*kA*kA*dG*d[5mC]*d[5mC]*dT*dT*dA*dG*dA*dG*dT*k[5mC]*kA*kA) [compound 958375] | 2736 U/L | 3013 U/L | 22 mg/dL | 0.43 mg/dL | 0.39 g | 2.00 g | 0.12 g | 23 g | Yap1 mRNA, % UTC (Yap1 mRNA [1]; [17]): 74 % UTC; Yap1 mRNA, % UTC (Yap1 mRNA [1]; [18]): 35 % UTC; Yap1 mRNA, % UTC (Yap1 mRNA [1]; [19]): 5 % UTC; IC50 (Yap1 mRNA [1]; [20]): 40 nM
958729 (kG*kT*k[5mC]*dA*dG*dT*dT*dA*dT*d[5mC]*d[5mC]*dT*dA*kT*k[5mC]*kT; antisense) [compound 958729] | 4368 U/L | 4503 U/L | 30 mg/dL | 2.15 mg/dL | 0.24 g | 1.32 g | 0.05 g | 15 g | Yap1 mRNA, % UTC (Yap1 mRNA [1]; [9]): 73 % UTC; Yap1 mRNA, % UTC (Yap1 mRNA [1]; [10]): 44 % UTC; Yap1 mRNA, % UTC (Yap1 mRNA [1]; [11]): 4 % UTC; IC50 (Yap1 mRNA [1]; [12]): 50 nM
958540 (kA*kT*kT*d[5mC]*dT*dA*dT*d[5mC]*d[5mC]*dA*dG*dG*dG*kT*k[5mC]*kA; antisense) [compound 958540] | 4127 U/L | 3940 U/L | 25 mg/dL | 0.44 mg/dL | 0.33 g | 1.53 g | 0.09 g | 19 g | Yap1 mRNA, % UTC (Yap1 mRNA [1]; [5]): 62 % UTC; Yap1 mRNA, % UTC (Yap1 mRNA [1]; [6]): 28 % UTC; Yap1 mRNA, % UTC (Yap1 mRNA [1]; [7]): 8 % UTC; IC50 (Yap1 mRNA [1]; [8]): 20 nM
958553 (k[5mC]*k[5mC]*kA*dT*dT*dA*dT*dT*dA*d[5mC]*dT*d[5mC]*d[5mC]*kT*kG*kT; antisense) [compound 958553] | 174 U/L | 227 U/L | 29 mg/dL | 0.20 mg/dL | 0.29 g | 1.01 g | 0.11 g | 21 g | Yap1 mRNA, % UTC (Yap1 mRNA [1]; [13]): 68 % UTC; Yap1 mRNA, % UTC (Yap1 mRNA [1]; [14]): 23 % UTC; Yap1 mRNA, % UTC (Yap1 mRNA [1]; [15]): 5 % UTC; IC50 (Yap1 mRNA [1]; [16]): 30 nM
958454 (antisense kG*kG*kA*dA*dT*dG*dA*dG*d[5mC]*dT*d[5mC]*dG*dA*kA*k[5mC]*kA) [compound 958454] | 1183 U/L | 2162 U/L | 45 mg/dL | 6.53 mg/dL | 0.25 g | 0.68 g | 0.03 g | 14 g | Yap1 mRNA, % UTC (Yap1 mRNA [1]; [9]): 72 % UTC; Yap1 mRNA, % UTC (Yap1 mRNA [1]; [10]): 40 % UTC; Yap1 mRNA, % UTC (Yap1 mRNA [1]; [11]): 4 % UTC; IC50 (Yap1 mRNA [1]; [12]): 40 nM
958736 (kG*kT*kG*dA*dT*dA*dT*dG*dG*dA*dT*dT*d[5mC]*kT*kG*kT; antisense) [compound 958736] | 2439 U/L | 1450 U/L | 20 mg/dL | 0.31 mg/dL | 0.39 g | 1.95 g | 0.18 g | 24 g | Yap1 mRNA, % UTC (Yap1 mRNA [1]; [17]): 83 % UTC; Yap1 mRNA, % UTC (Yap1 mRNA [1]; [18]): 38 % UTC; Yap1 mRNA, % UTC (Yap1 mRNA [1]; [19]): 7 % UTC; IC50 (Yap1 mRNA [1]; [20]): 60 nM
958554 (kA*kA*k[5mC]*d[5mC]*dA*dT*dT*dA*dT*dT*dA*d[5mC]*dT*k[5mC]*k[5mC]*kT; antisense) [compound 958554] | 583 U/L | 1051 U/L | 17 mg/dL | 0.28 mg/dL | 0.28 g | 1.05 g | 0.15 g | 22 g | Yap1 mRNA, % UTC (Yap1 mRNA [1]; Table 60, 15.6 nM, A-431 cells 10,000 cells per well, 48 hours): 70 % UTC; Yap1 mRNA, % UTC (Yap1 mRNA [1]; Table 60, 62.5 nM, A-431 cells 10,000 cells per well, 48 hours): 34 % UTC; Yap1 mRNA, % UTC (Yap1 mRNA [1]; Table 60, 4000.00 nM, A-431 cells 10,000 cells per well, 48 hours): 4 % UTC; IC50 (Yap1 mRNA [1]; Table 60, A-431 cells 10,000 cells per well): 30 nM
